Data on four compounds can be found in patent US8318801B2, “Cinnamic compounds and derivatives therefrom for the inhibition of histone deacetylase” (Naturewise Biotech & Medicals Corporation, priority 2009, dated 2012).

SMILES strings stand for the structures. Entries after “also recorded” stand apart in the source; their conditions may differ.

The test system of assay [1] is SMN2 protein in fibroblast cells derived from SMA patients. Conditions: after 64 hours of treatment; cited from earlier work.
The subject of assay [2] is Rat C6 glioma cells. Description: Inhibition of cancer cell growth and change of morphology. The assay is classed as cell-based. Conditions: Rat C6 glioma cells. On the procedure: (§1) Three cancer cell lines, Rat C6 giloma cells, Human breast cancer MCF-7 cells, and Human lung cancer A549 cells, were cultured in Dulbecco's modified Eagle's medium (DMEM; Gibco) containing 10% fetal bovine serum (FBS) and 1% penicillin/streptomycin. All three cell lines were maintained at 37° C. in a humidified atmosphere of 95% air and 5% CO2. For the experiments, the cells were seeded in 6-well plates. After 24 hours, the cells were treated with different concentrations of the various compounds.
(§2) Five cancer cell lines, Rat C6 giloma cells, Human breast cancer MCF-7 cells, Human glioma Hs683 cells, Human glioblastoma 05-MG cells, and Human lung cancer A549 cells, were cultured in Dulbecco's modified Eagle's medium (DMEM; Gibco) containing 10% fetal bovine serum (FBS) and 1% penicillin/streptomycin, and were kept at 37° C. in a humidified atmosphere of 95% air and 5% CO2. Human breast cancer. MDA-MB-231 cells were cultured in L-15 medium (Gibco) containing 10% fetal bovine serum (FBS), 1% penicillin/streptomycin, and 2 mM glutamine, and were maintained at 37° C. in a humidified atmosphere of 95% air and 0% CO2. For these experiments, the cells were seeded in 6-well plates or a 60-mm dish. After 24 hours, the cells were treated with different concentrations of the various compounds. […] Human glioblastoma 05-MG cells were treated with NBM-C-BCX-OS01 (1.0, 2.0, 4.0 μg/mL) and NBM-C-BMX-OS01 (1.0, 2.0, 4.0 μg/mL) for 72 hours (see FIG. 5(e)). […] The results were counted by a trypan blue exclusion assay (see FIG. 6(b)).

Assay [3] has as its system Human lung cancer A549 cells. Description: Inhibition of cancer cell growth. The assay is classed as cell-based. Conditions: 72 hrs, NBM-C-BX-OS01 7.5, others 2.5, 5.0, 7.5 μg/mL (FIG. 5(b)). As for the experimental part:
as §1, §2

The test system of assay [4] is Human glioma Hs683 cells. Description: Inhibition of cancer cell growth. The assay is classed as cell-based. Conditions: Hs683 cells, 1.25, 2.5, 5.0 μg/mL, 72 hrs (FIG. 5(d)). On the procedure:
Their results were counted by a trypan blue exclusion assay (see FIG. 8(e)).
as §2

Assay [5] has as its system Human glioblastoma 05-MG cells. Nature of the assay: Inhibition of cancer cell growth. As to conditions: 05-MG cells, 1.0, 2.0, 4.0 μg/mL, 72 hrs (FIG. 5(e)). The assay is classed as cell-based. On the procedure: as §2
For assay [6], the system named is human breast cancer MDA-MB-231 cells. Nature of the assay: Inhibition of cancer cell growth and change of morphology. The assay is classed as cell-based. As to conditions: MDA-MB-231 cells. As for the experimental part:
Their results were counted by a trypan blue exclusion assay (see FIG. 9(f)).
as §2

Assay [7] concerns Human glioma Hs683 cells. Description: Cell cycle analysis by flow cytometry (propidium iodide). The assay is classed as cell-based. As to conditions: Hs683 cells, 1.0, 2.0, 4.0 μg/mL, 72 hrs (FIG. 6(e)). As for the experimental part: Human lung cancer A549 cells, Human glioma Hs683 cells and Human glioblastoma 05-MG cells were seeded 1×10^6 cells in a 100-mm dish. After 24 hours of incubation in DMEM+10% BSA, Human lung cancer A549 cells were treated with NBM-HB-OS01 (2.5, 5.0, 7.5, 10.0 μg/mL) for 24 hours and were treated with NBM-C-BCX-OS01 (2.5, 5.0, 7.5 μg/mL) and NBM-C-BMX-OS01 (2.5, 5, 7.5 μg/mL) for 72 hours. Human glioblastoma 05-MG cells were treated with NBM-C-BCX-OS01 (1.0, 2.0, 4.0 μg/mL) and NBM-C-BMX-OS01 (1.0, 2.0, 4.0 μg/mL) for 72 hours. Human glioma Hs683 cells were treated with NBM-C-BCX-OS01 (1.0, 2.0, 4.0 μg/mL). For cell cycle analysis, cells were fixed in 80% ethanol for 1 hour (or overnight) at −20° C. and then incubated with 2 μg/mL RNase A for 30 minutes at 37° C. Cells were stained with propidium iodide ([…] PI) in PBS and analyzed using a Becton Dickinson flow cytometer, BD FACScan and CellQuest acquisition and analysis programs. […] Human glioma Hs683 cells were treated with NBM-C-BCX-OS01 (1.0, 2.0, 4.0 μg/mL) for 72 hours.

Assay [8] deals with acetyl-Histone H3, acetyl-Histone H4, acetyl-tubulin, p21, CTPS, Gelsolin, Hsp90, acetyl-Hsp90 in Human glioma Hs683 cells. Nature of the assay: Immunoblotting of histones and HDAC associated proteins. Conditions: Hs683 cells, 1.0, 2.0, 4.0 μg/mL. The assay is classed as cell-based. On the procedure:
Human glioma Hs683 cells were seeded at 5×10^5 cells in a 60-mm dish or 1×10^6 cells in a 100-mm dish. After 24 hours, Human glioma Hs683 cells were treated with different doses of NBM-C-BCX-OS01, NBM-C-BMX-OS01 (1.0, 2.0, 4.0 μg/mL), and vorinostat (SAHA, 5 μM) for 72 hours. Lysates of Hs683 cells were prepared for the immunoblotting of acetyl-Histone H3 (Cell Signaling Technology, Inc.), acetyl-Histone H4 (Upstate), acetyl-tubulin (Sigma Chemical Co.), p21 (BD Pharmingen Technology, Inc.), CTPS (ABNOVA TAIWAN Corporation), Gelsolin (Sigma Chemical Co.), Hsp90 (Cell Signaling Technology, Inc.), acetyl-Hsp90 (ROCKLAND, Inc.) and actin (Sigma Chemical Co.). Proteins were detected by chemiluminescence (ECL, Amersham). […] SAHA was used as a positive control and β-actin as an internal control (see FIG. 7(b)).

Assay [9] concerns cyclin D1 in MCF-7 breast cancer cells. As to conditions: cited from earlier work.
Assay [10] concerns transgenic mouse model of spinal and bulbar muscular atrophy. Conditions: cited from earlier work.

`CN(C)c1ccc(C(=O)NCCCCCCC(=O)NO)cc1` [M344]: the “up-regulation of SMN2 protein expression” value in assay [1] is “up to 7 fold”.

Consider `COc1ccc(/C=C\C(=O)NO)c(OCc2ccc(Cl)cc2)c1CC=C(C)C` [NBM-C-BCX-OS01, (Z)-2-(4-Chlorobenzoxy)-3-prenyl-4-methoxy-N-hydroxycinamide], for which the “inhibition of cell growth” value in [2] (24 hrs, NBM-C-BA-OS01 5 μg/mL, others 2.5, 5.0 μg/mL (FIG. 5(a))) is “inhibited the cell growth”. Further, in assay [2] (various concentrations, 24 hrs (FIG. 5(c))), the “inhibition of cell growth, similar to dose-dependent A549 result” value is recorded as “the results were similar”. For the same compound, the cell growth inhibition entry in [3] is “induced A549 cells growth inhibition in a dose-dependent manner; also recorded: induced A549 cell growth inhibition in dose-dependent amounts”. Besides, the cell growth inhibition entry in assay [4] is “Cell growth inhibition was observed”. For the same compound, the cell growth inhibition result in [5] is given as “Cell growth inhibition was observed”. Besides, the “change of cell morphology” value in assay [6] (72 hours (FIG. 6(a))) is listed as “changed the morphology of the cells”. The “inhibition of cell growth” value in assay [6] (various concentrations, 72 hrs (FIG. 6(a))) was “inhibition of the cell growth of human breast cancer MDA-MB-231 cells was observed; also recorded: inhibited the growth”. For the same compound, in assay [7], the “growth arrest in cell cycle analysis” value is reported as “arrested the growth; also recorded: could arrest the growth”. In [8] (72 hrs (FIG. 7(a))), the CTPS protein level result is given as “decreased in a dose-dependent manner”, the Hsp90 protein level result was “decreased in a dose-dependent manner”, the “induction (increase) of acetylated Hsp90 protein” value is “detected in a dose-dependent manner; also recorded: observed in a dose-dependent manner” and the “induction (increase) of gelsolin protein” value was “detected in a dose-dependent manner; also recorded: observed in a dose-dependent manner”. Besides, in assay [8] (72 hrs (FIG. 7(b))), the “expression of acetylated Histone H3” value is “significantly increased in a dose-dependent manner; also recorded: induced in a dose-dependent manner”, the “expression of acetylated Histone H4” value is recorded as “significantly increased in a dose-dependent manner; also recorded: induced in a dose-dependent manner”, the “expression of acetylated tubulin” value is “significantly increased in a dose-dependent manner; also recorded: induced in a dose-dependent manner” and the “expression of p21” value was “significantly increased in a dose-dependent manner; also recorded: induced in a dose-dependent manner”.

Regarding `CC(/C=C/C(=O)NO)=C\[C@@H](C)C(=O)c1ccc(N(C)C)cc1` [Trichostatin A], in assay [9], the “ubiquitin-dependent cyclin D1 degradation” value is recorded as “induce ubiquitin-dependent cyclin D1 degradation”.

Regarding `CCCC(=O)[O-].[Na+]` [sodium butyrate], the “effect on phenotypic expression” value in [10] is on record as “ameliorates phenotypic expression”.
